In patent publication US20250109135A1, “NOVEL ISOINDOLINONE DERIVATIVE COMPOUNDS AS CASPASE INHIBITORS” (INNOVO THERAPEUTICS INC., priority 2022, published 2025):
Like-named read-outs stand apart in the source and are kept apart here.

Key:
[1] = target: T1, recombinant human Caspase-1 (Homo sapiens, UniProt P29466); experiment: Caspase-1 inhibitory activity, fluorescent substrate Ac-YVAD-AFC; assay type: biochemical
T1 construct: purchased Enzo life science
T1 sequence (P29466 120-297 limits assumed): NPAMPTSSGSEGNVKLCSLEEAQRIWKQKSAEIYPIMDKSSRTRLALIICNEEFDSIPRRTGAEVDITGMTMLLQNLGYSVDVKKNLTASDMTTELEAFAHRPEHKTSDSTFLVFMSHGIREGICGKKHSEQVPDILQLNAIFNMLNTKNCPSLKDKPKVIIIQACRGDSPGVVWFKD
T1 sequence (P29466 317-404 limits assumed): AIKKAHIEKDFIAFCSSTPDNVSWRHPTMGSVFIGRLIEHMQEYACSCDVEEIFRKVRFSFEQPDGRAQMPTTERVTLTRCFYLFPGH
Description: To determine the Caspase-1 inhibitory activity of the compounds of the present invention prepared in Example, Caspase-1 activity was measured using a substrate with a fluorescent dye attached to it. […] The compound was dissolved in DMSO and stored at −20° C. Enzymatic reactions were carried out in a buffer comprising 50 mM HEPES (pH 8.0), 50 mM KCl, 200 mM NaCl, 10 mM DTT, 0.1% CHAPS (w/v). Enzyme inactivation was measured in the presence of different concentrations of the compound using the fluorescent substrate N-Acetyl-Tyr-Val-Ala-Asp-7-amido-4-trifluoromethylcoumarin (Ac-YVAD-AFC) (Sigma) at a concentration of 50 μM and 1 unit of recombinant human Caspase-1 (Enzo life science). A CLARIOstar Plus spectrometer (BMG Labtech) was used to measure the reaction rate as a function of time in the 400/505 nm (Ex/Em) wavelength band. […] If kobs/[I] is 20 or more, it is denoted as A, if it is 10 or more but less than 20, it is denoted as B, if it is 1 or more but less than 10, it is denoted as C, and if it is less than 1, it is denoted as D.
In the above equation, At means the enzyme reaction rate at time t (min), and Amax means the maximum reaction rate.

[2] = system: Secreted IL-1β in THP-1 cells; experiment: Interleukin-1β inhibitory activity in human monocytic cells THP-1 (ELISA); assay type: cell-based; settings: compound 100 nM, PMA-differentiated THP-1, LPS 10 μg/ml then 5 mM ATP, 24 h
Description: Caspase-1 is known as […] (ICE). Activated Caspase-1 is involved in the cleavage of pro-form IL-1β to produce the mature form, which is then secreted to induce inflammation. Therefore, the compounds identified in Experimental example 1 were tested to determine if their Caspase-1 inhibitory activity affected the production of […].
THP-1 (ATCC) cells were cultured in RPMI 1640 (Hyclone) growth medium comprising 10% Fetal bovine serum (FBS, Gibco) and antibiotics (100 U/ml Penicillin, 0.1 mg/ml Streptomycin, Cytiva) under 37° C., 5% CO2 conditions. Cultured THP-1 cells were seeded in growth medium to a concentration of 3×10^5 cells/well in 24-well plates (Celvest) and then treated with 1 μM Phorbol 12-myristate 13-acetate (PMA) (Sigma) for 24 hours to induce differentiation. Differentiated THP-1 were pre treated with 10 μg/ml Lipopolysaccharide (LPS, from E. coli 0111:B4 (InvivoGen)) in serum free RPMI 1640 medium for 24 hours to induce an inflammatory response. After removal of LPS, the compounds were pretreated for 1 h at a concentration of 100 nM using the same medium, followed by the addition of 5 mM ATP (InvivoGen) and incubation for 24 h in an incubator. The treated medium was collected and centrifuged, and IL-1β was quantified using an Enzyme linked immunoassay kit (ELISA kit, R&D system), and absorbance was measured at 450 nm using a CLARIOstar Plus spectrometer. Inhibitory activity was denoted as a if it was 50% or more, b if it was 30% or more but less than 50%, c if it was 10% or more but less than 30%, and d if it was less than 10%.

Jurkat cells = experiment: Apoptosis inhibition activity in human T-lymphocyte cells Jurkat (anti-FAS antibody, intracellular ATP); assay type: cell-based; settings: compound 50 nM, 1 μg/ml anti-FAS antibody 24 h, ATP luminescence
Description: To evaluate the effect of the compound of the present invention on apoptosis, Jurkat (ATCC) cells were treated with anti-FAS antibody CH-11 (Merck) to induce apoptosis via the Fas (CD95) receptor, which was assessed by the amount of intracellular ATP.
Jurkat cells were cultured in RPMI 1640 growth medium comprising 10% FBS and antibiotics (100 U/ml Penicillin, 0.1 mg/ml Streptomycin) under 37° C., 5% CO2 conditions. Cultured cells were seeded in growth medium to a concentration of 8×10^4 cells/well in 96-well plates (SPL), pretreated with compound at a concentration of 50 nM for 1 hour, and then treated with 1 μg/ml anti-FAS antibody for 24 hours in an incubator. After 24 h, an ATP lite Luminescence assay kit (PerkinElmer) was used to measure ATP and luminescence was measured at 580 nm using a CLARIOstar Plus spectrometer. If the inhibitory activity is 30% or more, it is denoted as a′, if it is 20% or more but less than 30%, it is denoted as b′, if it is 10% or more but less than 20%, it is denoted as c′, and if it is less than 10%, it is denoted as d′.

[3] = pH 8, read-out: kobs/[I] Caspase-1
[4] = pH 8, 1 unit recombinant human Caspase-1, 50 μM Ac-YVAD-AFC, read-out: kobs/[I] Caspase-1

SMILES | kinact/KI [1, 3] [M⁻¹ s⁻¹] | inhibition at 0.1 µM [2] [%] | inhibition at 0.05 µM (Jurkat cells) [%] | kinact/KI [1, 4] [M⁻¹ s⁻¹]
CC[C@@H](C(=O)NC(CC(=O)O)C(=O)CF)N1Cc2cc(-c3ccc4c(c3)OCCO4)ccc2C1=O (stereo partly drawn) [Compound 58, 3-((S)-2-(5-(2,3-dihydrobenzo[b][1,4]dioxin-6-yl)-1-oxoisoindolin-2-yl)butanamido)-5-fluoro-4-oxopentanoic acid] | 0.0167 to 0.167 | 10 to 30 | 10 to 20 | 
CC(C)[C@@H](C(=O)NC(CC(=O)O)C(=O)CF)N1Cc2ccc(-c3ccc4[nH]c(=O)[nH]c4c3)cc2C1=O (stereo partly drawn) [Compound 45, 5-fluoro-3-((S)-3-methyl-2-(1-oxo-6-(2-oxo-2,3-dihydro-1H-benzo[d]imidazol-5-yl)isoindolin-2-yl)butanamido)-4-oxopentanoic acid] | 0.0167 to 0.167 | 30 to 50 | 10 to 20 | 
O=C(O)CC(NC(=O)CN1Cc2ccc(-c3coc4ccccc34)cc2C1=O)C(=O)CF (centres unmarked) [Compound 39, 3-(2-(6-(benzofuran-3-yl)-1-oxoisoindolin-2-yl)acetamido)-5-fluoro-4-oxopentanoic acid] | 0.0167 to 0.167 | < 10 | < 10 | 
CCC(C(=O)NC(CC(=O)O)C(=O)CF)N1Cc2ccc(-c3cccc4ccccc34)cc2C1=O (centres unmarked) [Compound 2, 5-fluoro-3-(2-(6-(naphthalen-1-yl)-1-oxoisoindolin-2-yl)butanamido)-4-oxopentanoic acid] |  | 30 to 50 | 10 to 20 | 0.0167 to 0.167
CCC(C(=O)NC(CC(=O)O)C(=O)CF)N1Cc2ccc(N3CCn4cc(C(F)(F)F)nc4C3)cc2C1=O (centres unmarked) [Compound 10, 5-fluoro-4-oxo-3-(2-(1-oxo-6-(2-(trifluoromethyl)-5,6-dihydroimidazo[1,2-a]pyrazin-7(8H)-yl)isoindolin-2-yl)butanamido)pentanoic acid] |  | 30 to 50 | 10 to 20 | 0.0167 to 0.167
CC[C@@H](C(=O)N[C@@H](CC(=O)O)C(=O)COc1c(F)c(F)cc(F)c1F)N1Cc2ccc(-c3ccc4[nH]c(=O)[nH]c4c3)cc2C1=O [Compound 52, (S)-4-oxo-3-((S)-2-(1-oxo-6-(2-oxo-2,3-dihydro-1H-benzo[d]imidazol-5-yl)isoindolin-2-yl)butanamido)-5-(2,3,5,6-tetrafluorophenoxy)pentanoic acid] | > 0.333 | 10 to 30 | 10 to 20 | 
CCC(C(=O)NC(CC(=O)O)C(=O)CF)N1Cc2ccc(-c3cnc4ccccc4c3)cc2C1=O (centres unmarked) [Compound 37, 5-fluoro-4-oxo-3-(2-(1-oxo-6-(quinolin-3-yl)isoindolin-2-yl)butanamido)pentanoic acid] | 0.0167 to 0.167 | 10 to 30 | < 10 | 
CCC(C(=O)NC(CC(=O)O)C(=O)CF)N1Cc2ccc(-c3ccc4ncccc4c3)cc2C1=O (centres unmarked) [Compound 30, 5-fluoro-4-oxo-3-(2-(1-oxo-6-(quinolin-6-yl)isoindolin-2-yl)butanamido)pentanoic acid] |  | < 10 | < 10 | 0.167 to 0.333
CCC(C(=O)NC(CC(=O)O)C(=O)CF)N1Cc2ccc(-c3ccc(C(C)=O)cc3)cc2C1=O (centres unmarked) [Compound 18, 3-(2-(6-(4-acetylphenyl)-1-oxoisoindolin-2-yl)butanamido)-5-fluoro-4-oxopentanoic acid] |  | ≥ 50 | 10 to 20 | 0.0167 to 0.167
O=C(O)CC(NC(=O)CN1Cc2ccc(-c3ccc4occc4c3)cc2C1=O)C(=O)CF (centres unmarked) [Compound 41, 3-(2-(6-(benzofuran-5-yl)-1-oxoisoindolin-2-yl)acetamido)-5-fluoro-4-oxopentanoic acid] | 0.0167 to 0.167 | < 10 | < 10 | 
O=C(O)CC(NC(=O)CN1Cc2ccc(-c3ccc4[nH]c(=O)[nH]c4c3)cc2C1=O)C(=O)CF (centres unmarked) [Compound 38, 5-fluoro-4-oxo-3-(2-(1-oxo-6-(2-oxo-2,3-dihydro-1H-benzo[d]imidazol-5-yl)isoindolin-2-yl)acetamido)pentanoic acid] | < 0.0167 | < 10 | < 10 | 
CC[C@@H](C(=O)NC(CC(=O)O)C(=O)CF)N1Cc2cc(-c3coc4ccccc34)ccc2C1=O (stereo partly drawn) [Compound 57, 3-((S)-2-(5-(benzofuran-3-yl)-1-oxoisoindolin-2-yl)butanamido)-5-fluoro-4-oxopentanoic acid] | 0.0167 to 0.167 | 10 to 30 | 20 to 30 | 
CCC(C(=O)NC(CC(=O)O)C(=O)CF)N1Cc2ccc(-c3ccc(S(C)(=O)=O)cc3F)cc2C1=O (centres unmarked) [Compound 12, 5-fluoro-3-(2-(6-(2-fluoro-4-(methylsulfonyl)phenyl)-1-oxoisoindolin-2-yl)butanamido)-4-oxopentanoic acid] |  | 10 to 30 |  | 0.0167 to 0.167
CCC(C(=O)NC(CC(=O)O)C(=O)CF)N1Cc2ccc(-c3ccc(C(F)(F)F)nc3)cc2C1=O (centres unmarked) [Compound 20, 5-fluoro-4-oxo-3-(2-(1-oxo-6-(6-(trifluoromethyl)pyridin-3-yl)isoindolin-2-yl)butanamido)pentanoic acid] |  | 10 to 30 |  | 0.0167 to 0.167
CCC(C(=O)NC(CC(=O)O)C(=O)CF)N1Cc2ccc(C3=CCOCC3)cc2C1=O (centres unmarked) [Compound 15, 3-(2-(6-(3,6-dihydro-2H-pyran-4-yl)-1-oxoisoindolin-2-yl)butanamido)-5-fluoro-4-oxopentanoic acid] |  | < 10 |  | < 0.0167
CC[C@@H](C(=O)NC(CC(=O)O)C(=O)CF)N1Cc2cc(-c3cccc4ccccc34)ccc2C1=O (stereo partly drawn) [Compound 61, 5-fluoro-3-((S)-2-(5-(naphthalen-1-yl)-1-oxoisoindolin-2-yl)butanamido)-4-oxopentanoic acid] | < 0.0167 | < 10 |  | 
CCC(C(=O)NC(CC(=O)O)C(=O)CF)N1Cc2ccc(-c3cccc4cnccc34)cc2C1=O (centres unmarked) [Compound 36, 5-fluoro-3-(2-(6-(isoquinolin-5-yl)-1-oxoisoindolin-2-yl)butanamido)-4-oxopentanoic acid] | 0.0167 to 0.167 | < 10 |  | 
CCC(C(=O)NC(CC(=O)O)C(=O)CF)N1Cc2ccc(-c3ccn(C)n3)cc2C1=O (centres unmarked) [Compound 25, 5-fluoro-3-(2-(6-(1-methyl-1H-pyrazol-3-yl)-1-oxoisoindolin-2-yl)butanamido)-4-oxopentanoic acid] |  | 10 to 30 |  | 0.0167 to 0.167
CC[C@@H](C(=O)NC(CC(=O)O)C(=O)CF)N1Cc2cc(-c3ccc4occc4c3)ccc2C1=O (stereo partly drawn) [Compound 60, 3-((S)-2-(5-(benzofuran-5-yl)-1-oxoisoindolin-2-yl)butanamido)-5-fluoro-4-oxopentanoic acid] | < 0.0167 | < 10 |  | 
